# Assay results taken from PMC7590976, “Detection of Active Granzyme A in NK92 Cells with Fluorescent Activity-Based Probe” (Journal of Medicinal Chemistry, 2020).
# Values joined by “and” are separate entries in the source; they are usually repeats but may differ in a detail not shown here. Equal entries are not always repeated. Non-standard residues stand in square brackets, D forms with d. *: point of attachment. Oic = O=C(O)[C@@H]1C[C@@H]2CCCC[C@@H]2N1; ACC = NC(=O)Cc1cc(=O)oc2cc(N*)ccc12
# Legend:
# GrB [1] = target: T1, GrB (Homo sapiens, UniProt P10144); test: GrA substrate selectivity testing on GrB; assay type: biochemical; conditions: substrate 200 μM (Fig 3A) or 67 μM, 18 nM GrB
# T1 construct: made in house; host or cells: Pichia pastoris
# Excerpt: Since GrA and GrK are the most structurally similar Grs, they may recognize and hydrolyze the same natural and synthetic substrates. Therefore, we tested whether our new GrA substrates are also recognized by GrK or GrB (Figure 3A). For this experiment, we screened substrates SK8 to SK28 and a GrKref substrate (Ac-Tyr-Arg-Phe-Lys-ACC) or GrBref substrate (Ac-Ile-Glu-Pro-Asp-ACC) at the same concentration using a plate reader, and we monitored the increase in fluorescence over time. The linear portions of the diagram were analyzed, and as we expected, the majority of the substrates were well recognized by GrK, even better than their recognition by GrA. […] Based on that, we concluded that Tic-Gly-Oic-Arg is a leading sequence for a specific potent inhibitor and ABP for GrA.
# Figure 3 (A) GrA substrate selectivity testing on GrK and GrB. Substrates SK8–SK28 and the reference GrK and GrB substrates were placed in a 96-well plate at a concentration of 200 μM and treated with GrK or GrB. […] Data present the average of 2 replicates as adjusted RFU/s.
# Figure S2. Selectivity of SK15 substrate toward selected serine proteases (GrA, GrB, GrM, GrK,
# PR3, and hNE). The reference substrates were as follows: Ac-Ile-Gly-Pro-Arg-ACC for GrA, Ac -Tyr-
# Arg-Phe-Lys-ACC for GrK, Ac-Ile-Glu-Pro-Asp-ACC for GrB, Ac-Lys-Val-Pro-Leu-ACC for GrM,
# Ac-Glu(O-Bzl)-Lys(Ac)-Hyp(Bzl)-Nva-ACC for PR3 and Ac-Arg(NO)2-Glu(Bzl)-Oic-Abu-ACC for hNE.
# Substrates were placed in a 96-well plate at a concentration of 67 µM and treated with optimal
# and emission wavelengths. Data present the average of 2 replicates as adjusted RFU/s.
# Figure S3. Detection of active GrA in NK92 cells.
# (also on this page, place not known: S K15 hNE) . Ac-Tyr- -Arg(NO)2-Glu(Bzl)-Oic-Abu-ACC ( 89 G rA cell s. reference reference SK15 reference SK15 reference SK15 reference SK15 reference SK15 0 50 100 substrate turnover, %RFU/s PR3GrMGrBGrK hNEGrA SK15 selectivity) […]
# GrA [2] = target: T2, GrA (Homo sapiens, UniProt P12544); test: Steady-state Michaelis–Menten kinetics of fluorogenic ACC substrates with GrA; assay type: biochemical; conditions: GrA 93 nM, 37 °C, ACC fluorescence 355/460 nm
# T2 construct: made in house; host or cells: Pichia pastoris
# T2 sequence (P12544 29-262): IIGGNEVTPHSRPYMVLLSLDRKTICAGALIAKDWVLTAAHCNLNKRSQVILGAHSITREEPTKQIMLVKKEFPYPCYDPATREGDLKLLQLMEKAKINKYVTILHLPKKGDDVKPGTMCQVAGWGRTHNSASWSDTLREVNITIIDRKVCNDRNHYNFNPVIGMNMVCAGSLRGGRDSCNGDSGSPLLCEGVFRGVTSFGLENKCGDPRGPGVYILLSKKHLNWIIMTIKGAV
# Excerpt: All chemical and biological reagents were purchased from commercial suppliers and used without further purification. The following reagents for solid phase peptide synthesis, Rink Amide RA resin (particle size 200–300 mesh, loading 0.74 mmol/g), 2-chlorotrityl chloride resin, Fmoc-protected amino acids, biotin, 1-[bis(dimethylamino)methylene]-1H-1,2,3-triazolo[4,5-b] pyridinium 3-oxid hexafluorophosphate (HATU), piperidine, diisopropylcarbodiimide (DICI), and trifluoroacetic acid (TFA), were purchased from Iris Biotech GmbH (Marktredwitz, Germany); anhydrous N-hydroxybenzotriazole (HOBt, purity >98%) was purchased from Creosauls; 2,4,6-collidine (2,4,6-trimethylpyridine), HPLC pure acetonitrile, and triisopropylsilane (TIPS) were purchased from Sigma-Aldrich (Poznan, Poland); and N,N-diisopropylethylamie (DIPEA) was purchased from VWR International (Gdansk, Poland). Solvents such as N,N-dimethylformamide (DMF), dichloromethane (DCM), methanol (MeOH), diethyl ether (Et2O), and acetic acid (AcOH) were purchased from Avantor (Gliwice, Poland). Cy5 was purchased from Lumiprobe GmbH (Hannover, Germany). Human neutrophil elastase was purchased from BioCentrum (Kraków, Poland) and proteinase 3 from Athens Research Technology (Athens, USA). Anti-GrA antibody (rabbit, monoclonal, ab209205) was obtained from Abcam (Cambridge, Great Britain). All cell lines were purchased from DSMZ (Braunschweig, Germany) or ATCC (Manassas, USA). All kinetic assays were performed using a Spectra Max Gemini XPS spectrofluorometer (Molecular Devices) on 96-well Corning plates. The parameters of the process were as follows: 37 °C; excitation/emission wavelength, 355/460 nm; cutoff, 455 nm; varying concentrations of substrates and enzyme. All measurements were performed in duplicate, and the data represent the average of these repetitions
# GrA [3] = target: T2, GrA; test: Second-order inhibition rate constant kobs/I toward GrA, pseudo-first-order conditions; assay type: biochemical; conditions: pseudo-first-order; substrate SK15 10 μM; inhibitor 714–333 nM; GrA 350 nM added; pH 7.5, 37 °C; average of at least three experiments with SD
# Description: We calculated the apparent second-order rate constants for inhibition (kobs(app)/I) of GrA-mediated SK15I under pseudo first-order conditions by serially diluting the new inhibitor in the range of 714–333 nM with a constant optimal substrate (SK15) concentration of 10 μM (Figure 3B).
# The second-order inhibition rate constant (kobs/I expressed in M^–1 s^–1) toward GrA was measured under pseudo-first-order kinetic conditions. Ten microliters of substrate (SK15) was mixed with varying inhibitor or probe concentrations and incubated at 37 °C for 15 min. […] Experiments are presented as the average of at least three experiments with standard deviation.
# GrA [4] = test: Residual activity assay, GrA preinhibited with SK15I or SK15.5; assay type: biochemical, human; conditions: substrate SK15; preincubation 30 min, 37 °C
# Description: (§1) We wondered whether the selectivity of our SK15-based molecules for GrA would be maintained by substrate structure modifications, such as replacing ACC with a diphenyl phosphonate warhead and changing the N-terminus from acetyl to the cyanine derivative Cy5.
# (§2) As a control, enzymes without inhibitor and probe were tested.
# GrK = target: T3, GrK (Homo sapiens, UniProt P49863); test: Residual activity assay, GrK; assay type: biochemical; conditions: 488 nM GrK preincubated with 10 μM compound 30 min 37 °C; 200 μM GrKref
# T3 construct: made in house; host or cells: Pichia pastoris
# T3 sequence (P49863 27-264): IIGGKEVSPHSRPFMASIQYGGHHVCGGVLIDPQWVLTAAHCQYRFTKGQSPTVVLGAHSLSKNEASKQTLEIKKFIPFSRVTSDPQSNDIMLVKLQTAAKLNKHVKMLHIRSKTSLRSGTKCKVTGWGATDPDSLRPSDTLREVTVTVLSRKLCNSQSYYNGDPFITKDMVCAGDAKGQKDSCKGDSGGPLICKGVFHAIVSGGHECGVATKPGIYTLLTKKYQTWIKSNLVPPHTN
# Description: as §1, §2
# GrB [5] = target: T1, GrB; test: Residual activity assay, GrB; assay type: biochemical; conditions: 18 nM GrB preincubated with 10 μM compound 30 min 37 °C; 200 μM GrBref
# Description: as §1, §2
# GrM = test: Residual activity assay, GrM; assay type: biochemical, human; conditions: 74 nM GrM preincubated with 10 μM compound 30 min 37 °C; substrate Ac-Lys-Val-Pro-Leu-ACC
# Description: as §1, §2
# PR3 = test: Residual activity assay, PR3; assay type: biochemical; conditions: 3.4 nM PR3 preincubated with 10 μM compound 30 min 37 °C; substrate Ac-Glu(O-Bzl)-Lys(Ac)-Hyp(Bzl)-Nva-ACC
# Description: as §1, §2
# hNE = test: Residual activity assay, hNE; assay type: biochemical, human; conditions: 3.3 nM hNE preincubated with 10 μM compound 30 min 37 °C; substrate Ac-Arg(NO)2-Glu(Bzl)-Oic-Abu-ACC
# Description: as §1, §2
# GrA [6] = target: T4, GrA (Homo sapiens, UniProt P12544); test: In-gel detection of recombinant GrA with SK15.5 (SDS-PAGE); assay type: binding; conditions: GrA forms 250 nM, probe 500 nM, 1 h, Western blot
# T4 construct: made in house; host or cells: Pichia pastoris
# T4 sequence (P12544 27-262): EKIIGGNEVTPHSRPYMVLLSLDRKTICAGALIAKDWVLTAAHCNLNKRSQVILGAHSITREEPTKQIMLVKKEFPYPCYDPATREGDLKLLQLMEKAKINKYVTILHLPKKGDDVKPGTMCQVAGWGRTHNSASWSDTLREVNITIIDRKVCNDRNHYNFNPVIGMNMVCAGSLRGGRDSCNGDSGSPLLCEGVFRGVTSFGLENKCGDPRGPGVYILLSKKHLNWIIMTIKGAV
# Description: (§3) Next, we tested the utility of our fluorescent probe for the in-gel detection of active GrA in test samples. […] We then ran a simple SDS-PAGE assay to detect labeled GrA (Figure 4A). […] In our hands, the probe bound to the enzyme, as indicated by the fluorescent 35 kDa species, after the minimal incubation time (5 min). […] The optimal concentration was 500 nM (strong signal) (Figure 4B).
# (§4) (A) Incubation time of SK15.5 with enzyme optimization. […] (D) GrA in-gel detection in NK92 cell lysates. […] The results are representative of at least 2 replicates.
# (§5) In contrast to the closely related GrB, GrH, GrM, and GrK, GrA is a homodimer formed by stable disulfide-linked subunits.[26] Since the subunits are oriented in opposite directions, the surrounding area may form an exosite.[26]
# (§6) In the incubation time optimization assay, the enzyme and probe concentrations were constant (250 nM), and the incubation time ranged from 0 to 120 min. […] Enzyme was incubated with probe in a volume of 80 μL, followed by the reduction with 40 μL of 3 × SDS/DTT for 5 min at 95 °C. Samples were centrifuged (3 min, 4500g), and 40 μL of each sample was run on 4–12% Bis-Tris 10-well gels (Invitrogen). The first well was loaded with 2 μL of the protein marker PageRuler Plus Prestained Protein Ladder (Thermo Scientific). Electrophoresis was conducted at 165 V for 37 min at room temperature. […] Total sample volume was 80 μL, to which 40 μL of 3× SDS/DTT was added and boiled for 5 min at 95 °C. Samples were centrifuged (3 min, 4500g), and 40 μL of each sample was run on 4–12% Bis-Tris 10-well gels (Invitrogen). Each form of the enzyme without SK15.5 and probe itself were run as controls. The first well was loaded with 2 μL of protein marker PageRuler Plus Prestained Protein Ladder (Thermo Scientific). Electrophoresis and membrane transfer were conducted in the same manner as above.
# GrA [7] = target: T2, GrA; test: as above; assay type: binding; conditions: GrA 250 nM, 37 °C
# Description: as §3, §4, §5, §6
# GrA in NK92 cell lysates = conditions: lysates 1 × 10^7 cells/mL, probe 250 nM to 2 μM, 1 h, 37 °C
# human GrA = test: P1 library screening (individual substrates Ac-Ile-Ser-Pro-P1-ACC) with GrA; conditions: relative to best P1 residue (100%); substrates at the same concentration; fluorescence 355/460 nm
# T1 sequence (P10144 21-247): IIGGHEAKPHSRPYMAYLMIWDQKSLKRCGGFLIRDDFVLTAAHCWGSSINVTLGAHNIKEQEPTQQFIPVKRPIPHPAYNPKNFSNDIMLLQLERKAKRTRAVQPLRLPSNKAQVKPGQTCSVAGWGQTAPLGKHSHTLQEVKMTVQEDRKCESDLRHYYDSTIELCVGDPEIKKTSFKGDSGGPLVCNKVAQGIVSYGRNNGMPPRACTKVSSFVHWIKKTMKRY
substance,measurement,setting,value
Ac-IG[Oic]R-{ACC} (SMILES CC[C@H](C)[C@H](NC(C)=O)C(=O)NCC(=O)N1[C@H](C(=O)N[C@@H](CCCNC(=N)N)C(=O)Nc2ccc3c(CC(N)=O)cc(=O)oc3c2)C[C@@H]2CCCC[C@@H]21) [SK17],hydrolysis by GrB (in words),GrB [1],significantly hydrolyzed
"Ac-Ile-Gly-Pro-Arg-ACC (Ac-IGPR-{ACC}; SMILES CC[C@H](C)[C@H](NC(C)=O)C(=O)NCC(=O)N1CCC[C@H]1C(=O)N[C@@H](CCCNC(=N)N)C(=O)Nc1ccc2c(CC(N)=O)cc(=O)oc2c1) [SK7, reference compound]",kcat,GrA [2]; assay buffer pH 7.5,0.035 ± 0.00076 s⁻¹
same,kcat/KM,GrA [2]; assay buffer pH 7.5,78 ± 6.60 s^–1 M^–1 and 78 ± 6.6 M^–1 s^–1
same,Km,"GrA [2]; substrate 1000–7.81 μM, 50 mM Tris, 100 mM NaCl, 5 mM CaCl2, 0.01% Tween-20, pH 7.5, Michaelis–Menten nonlinear regression, duplicate",450 ± 1.3 µM
Ac-Met(O)-Gly-Hyp(Bzl)-3-Abz-ACC [SK13],hydrolysis by GrB (in words),GrB [1],significantly hydrolyzed
Cy5-Ahx-Tic-Gly-Oic-Arg^P(OPh)2 [SK15.5],kobs/I,GrA [3],3521 ± 296 M^–1 s^–1
same,residual GrA activity after preinhibition (in words),GrA [4],completely blocked
same,inhibition of GrK,GrK,3%
same,inhibition of GrB,GrB [5],almost no inhibition effect
same,inhibition of GrM,GrM,almost no inhibition effect
same,inhibition of PR3,PR3,almost no inhibition effect
same,inhibition of hNE,hNE,almost no inhibition effect
same,probe labeling of GrA zymogen (in words),GrA [6],no signal was detected in the zymogen
same,optimal probe concentration for GrA labeling (strong signal),"GrA [7]; 30 min, SDS-PAGE",500 nM
same,"detection limit, minimum probe concentration needed for GrA labeling","GrA [7]; 30 min, SDS-PAGE, estimated",approximately 50 nM
same,incubation time after which labeling no longer increases (maximal labeling),GrA [7]; probe 250 nM,30 min
same,minimal incubation time after which probe-bound GrA is detected,GrA [7]; probe 250 nM,5 min
same,selectivity of labeling in NK92 cell lysates (in words),GrA in NK92 cell lysates,did not observe any additional bands
L-Arg,relative GrA activity on P1 library substrate Ac-Ile-Ser-Pro-P1-ACC,human GrA,92%
L-Asp,relative GrA activity on P1 library substrate Ac-Ile-Ser-Pro-P1-ACC,human GrA,17.8%
L-Lys,relative GrA activity on P1 library substrate Ac-Ile-Ser-Pro-P1-ACC,human GrA,21%
